Experimental data taken from the NIST ThermoML archive (doi:10.1021/je050261u).

Experiment: xn = mol fraction of the nth substance listed
Details: Liquid, Vibrating tube method, x1 = 1

CCO [ethanol] + CCCCCCC
mass density [kg/m3]
Details	293.15 K	303.15 K	313.15 K	323.15 K	333.15 K
100 kPa	789.4	781.1	772.3	763.1	754.2
5000 kPa	793.5	785.7	776.9	768	759.4
10000 kPa	797.5	789.8	781.5	772.9	764.6
15000 kPa	801.4	794	785.8	777.3	769.4
20000 kPa	805.2	797.8	789.8	781.4	773.8
25000 kPa	808.7	801.6	793.7	785.7	777.8
30000 kPa	812.1	805	797.4	789.4	781.7
35000 kPa	815.3	808.5	801	793.1	785.6
40000 kPa	818.6	811.8	804.4	796.7	789.3
45000 kPa	821.6	814.9	807.8	800.1	792.8
50000 kPa	824.6	817.9	810.8	803.5	796.3
55000 kPa	827.5	821.1	813.7	806.6	799.7
60000 kPa	830.2	824	816.6	809.7	802.9
65000 kPa	832.9	826.7	819.5	812.6	806
